The IC50 is the concentration at which inhibition is half-maximal.

Sequence of Recombinant human cathepsin S (CatS) (P25774 115-331): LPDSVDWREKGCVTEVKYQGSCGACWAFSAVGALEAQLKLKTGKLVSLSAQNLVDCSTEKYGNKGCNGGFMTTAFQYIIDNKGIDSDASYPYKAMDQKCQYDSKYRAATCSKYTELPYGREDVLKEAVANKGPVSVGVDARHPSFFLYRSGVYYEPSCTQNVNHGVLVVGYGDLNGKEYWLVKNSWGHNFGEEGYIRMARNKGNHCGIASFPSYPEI

The first experiment addresses Recombinant human cathepsin S (CatS) (Homo sapiens, UniProt P25774). Description: Recombinant human cathepsin S (CatS) inhibition assay, fluorogenic substrate Z-Valine-Valine-Arginine-AMC.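 Further: Baculovirus-expressed CatS in pH 5.0 sodium acetate buffer with DTT and NaCl, fluorescence read each minute over 20 min, inhibition derived from rate slope.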
Settings: not given
Consider `CNC(=O)N1CCc2c(c(-c3ccc(Cl)c(C#Cc4ccc(CNCc5ccc(Cl)cc5)cc4)c3)nn2CCCN2CCOCC2)C1` [Example 155, 3-(4-Chloro-3-{[4-({[(4-chlorophenyl)methyl]amino}methyl)phenyl]ethynyl}phenyl)-N-methyl-1-(3-morpholin-4-ylpropyl)-1,4,6,7-tetrahydro-5H-pyrazolo[4,3-c]pyridine-5-carboxamide], for which the IC50 came to 790 nM. Consider `CS(=O)(=O)N1CCc2c(c(-c3ccc(Cl)c(C#Cc4ccc(Oc5ccc(I)cc5)cc4)c3)nn2CCCN2CCOCC2)C1` [Example 14, 3-{4-Chloro-3-[4-(4-iodo-phenoxy)-phenylethynyl]-phenyl}-5-methanesulfonyl-1-(3-morpholin-4-yl-propyl)-4,5,6,7-tetrahydro-1H-pyrazolo[4,3-c]pyridine], for which the half-maximal inhibitory concentration (IC50) stood at 20000 nM.

Take `CCOC(=O)C1CCN(CCCn2nc(-c3ccc(Cl)c(C#Cc4ccc(CNCc5ccc(Cl)cc5)cc4)c3)c3c2CCN(S(C)(=O)=O)C3)CC1` [Example 334, Ethyl 1-{3-[3-(4-chloro-3-{[4-({[(4-chlorophenyl)methyl]amino}methyl)phenyl]ethynyl}phenyl)-5-(methylsulfonyl)-4,5,6,7-tetrahydro-1H-pyrazolo[4,3-c]pyridin-1-yl]propyl}piperidine-4-carboxylate]: the IC50 is 30 nM. `CN(C)c1ccc2c(n1)n(C1CCN(CC(O)Cn3nc(-c4ccc(Cl)c(C#Cc5ccc(Cl)cc5)c4)c4c3CCN(S(C)(=O)=O)C4)CC1)c(=O)n2C` (centres unmarked) [Example 126, 3-[1-(3-{3-[4-Chloro-3-(4-chloro-phenylethynyl)-phenyl]-5-methanesulfonyl-4,5,6,7-tetrahydro-pyrazolo[4,3-c]pyridin-1-yl}-2-hydroxy-propyl)-piperidin-4-yl]-5-dimethylamino-1-methyl-1,3-dihydro-imidazo[4,5-b]pyridin-2-one]: the IC50 was 10 nM.

As for `Clc1ccc(C#Cc2cc(-c3nn(CCCN4CCOCC4)c4c3CNCC4)ccc2Cl)cc1` [Example 297, 3-{4-Chloro-3-[(4-chlorophenyl)ethynyl]phenyl}-1-(3-morpholin-4-ylpropyl)-4,5,6,7-tetrahydro-1H-pyrazolo[4,3-c]pyridine], the IC50 came to 1600 nM. For the molecule `CS(=O)(=O)N1CCc2c(c(-c3ccc(Cl)c(CCCN)c3)nn2CCCN2CCOCC2)C1` [Example 304, 3-{2-Chloro-5-[5-(methylsulfonyl)-1-(3-morpholin-4-ylpropyl)-4,5,6,7-tetrahydro-1H-pyrazolo[4,3-c]pyridin-3-yl]phenyl}propan-1-amine], the IC50 amounted to 17000 nM. As to `CS(=O)(=O)N1CCc2c(c(-c3ccc(C(F)(F)F)c(C#Cc4ccc(Cl)cc4)c3)nn2CC(O)CN2CCOCC2)C1` (centres unmarked) [Example 122, 1-{3-[3-(4-Chloro-phenylethynyl)-4-trifluoromethyl-phenyl]-5-methanesulfonyl-4,5,6,7-tetrahydro-pyrazolo[4,3-c]pyridin-1-yl}-3-morpholin-4-yl-propan-2-ol], the half-maximal inhibitory concentration (IC50) worked out at 260 nM. In the case of `CS(=O)(=O)N1CCc2c(c(-c3ccc(Cl)c(C#Cc4ccc(CNCc5ccc(Cl)cc5)cc4)c3)nn2CC(O)CN2CCOCC2)C1` (centres unmarked) [Example 332, 1-[3-(4-Chloro-3-{[4-({[(4-chlorophenyl)methyl]amino}methyl)phenyl]ethynyl}phenyl)-5-(methylsulfonyl)-4,5,6,7-tetrahydro-1H-pyrazolo[4,3-c]pyridin-1-yl]-3-morpholin-4-ylpropan-2-ol], the IC50 is 190 nM. Still for that read-out and setting: in the case of `CS(=O)(=O)N1CCc2c(c(-c3ccc(C(F)(F)F)c(C#Cc4ccc(Cl)cc4)c3)nn2CC(O)CN2CCC(C(N)=O)CC2)C1` (centres unmarked) [Example 119, 1-(3-{3-[3-(4-Chloro-phenylethynyl)-4-trifluoromethyl-phenyl]-5-methanesulfonyl-4,5,6,7-tetrahydro-pyrazolo[4,3-c]pyridin-1-yl}-2-hydroxy-propyl)-piperidine-4-carboxylic acid amide] it was 60 nM.

The same experiment, now with this note: CatS IC50.
Consider `CN(Cc1ccc(Cl)cc1)Cc1ccc(C#Cc2cc(-c3nn(CCCN4CCN(c5ccccn5)CC4)c4c3CN(S(C)(=O)=O)CC4)ccc2Cl)cc1` [Example 502, 1-{4-[(2-Chloro-5-{5-(methylsulfonyl)-1-[3-(4-pyridin-2-ylpiperazin-1-yl)propyl]-4,5,6,7-tetrahydro-1H-pyrazolo[4,3-c]pyridin-3-yl}phenyl)ethynyl]phenyl}-N-[(4-chlorophenyl)methyl]-N-methylmethanamine], for which the half-inhibitory concentration (IC50) was found to be 110 nM. `Cn1cncc1CNCc1ccc(C#Cc2cc(-c3nn(CCCN4CCOCC4)c4c3CN(S(C)(=O)=O)CC4)ccc2Cl)cc1` [Example 457, 1-[4-({2-Chloro-5-[5-(methylsulfonyl)-1-(3-morpholin-4-ylpropyl)-4,5,6,7-tetrahydro-1H-pyrazolo[4,3-c]pyridin-3-yl]phenyl}ethynyl)phenyl]-N-[(1-methyl-1H-imidazol-5-yl)methyl]methanamine]: the IC50 worked out at 90 nM. Regarding `CNCCCNC(=O)c1ccc(C#Cc2cc(-c3nn(CCCN4CCCCC4)c4c3CN(S(C)(=O)=O)CC4)ccc2Cl)cc1` [Example 614, 4-({2-Chloro-5-[5-(methylsulfonyl)-1-(3-piperidin-1-ylpropyl)-4,5,6,7-tetrahydro-1H-pyrazolo[4,3-c]pyridin-3-yl]phenyl}ethynyl)-N-[3-(methylamino)propyl]benzamide], the IC50 amounted to 60 nM. Still for that read-out and setting: to `C[C@H]1COCCN1CCCn1nc(-c2ccc(Cl)c(C#Cc3ccc(Cl)c(C(=O)NCCCN(C)C(=O)OC(C)(C)C)c3)c2)c2c1CCN(C(=O)C(N)=O)C2` [Example 576, tert-Butyl (3-{[(5-{[5-(5-[amino(oxo)acetyl]-1-{3-[(3S)-3-methylmorpholin-4-yl]propyl}-4,5,6,7-tetrahydro-1H-pyrazolo[4,3-c]pyridin-3-yl)-2-chlorophenyl]ethynyl}-2-chlorophenyl)carbonyl]amino}propyl)methylcarbamate] belongs 50 nM; to `C[C@H]1COCCN1CCCn1nc(-c2ccc(Cl)c(C#Cc3ccc4c(c3)CN(C)CC4)c2)c2c1CCN(S(C)(=O)=O)C2` [Example 281, 7-({2-Chloro-5-[1-{3-[(3S)-3-methylmorpholin-4-yl]propyl}-5-(methylsulfonyl)-4,5,6,7-tetrahydro-1H-pyrazolo[4,3-c]pyridin-3-yl]phenyl}ethynyl)-2-methyl-1,2,3,4-tetrahydroisoquinoline], 120 nM; to `C[C@H]1COCCN1CCCn1nc(-c2ccc(Cl)c(C#Cc3ccc(CNCc4ccsc4)cc3)c2)c2c1CCN(S(C)(=O)=O)C2` [Example 434, 1-[4-({2-Chloro-5-[1-{3-[(3S)-3-methylmorpholin-4-yl]propyl}-5-(methylsulfonyl)-4,5,6,7-tetrahydro-1H-pyrazolo[4,3-c]pyridin-3-yl]phenyl}ethynyl)phenyl]-N-(3-thienylmethyl)methanamine], 200 nM. `CS(=O)(=O)N1CCc2c(c(-c3ccc(Cl)c(C#Cc4ccc5c(c4)CN(C(=O)C(F)(F)F)C5)c3)nn2CCCN2CCOCC2)C1` [Example 364, 3-(4-Chloro-3-{[2-(trifluoroacetyl)-2,3-dihydro-1H-isoindol-5-yl]ethynyl}phenyl)-5-(methylsulfonyl)-1-(3-morpholin-4-ylpropyl)-4,5,6,7-tetrahydro-1H-pyrazolo[4,3-c]pyridine]: the IC50 was 170 nM. As to `CCCNCc1cc(C#Cc2cc(-c3nn(CCCN4CCOC[C@@H]4C)c4c3CN(C(=O)C(N)=O)CC4)ccc2Cl)ccc1Cl` [Example 270, (S)-2-{3-[4-Chloro-3-(4-chloro-3-propylaminomethyl-phenylethynyl)-phenyl]-1-[3-(3-methyl-morpholin-4-yl)-propyl]-1,4,6,7-tetrahydro-pyrazolo[4,3-c]pyridin-5-yl}-2-oxo-acetamide], the IC50 amounted to 20 nM.

On to `CS(=O)(=O)N1CCc2c(c(-c3ccc(Cl)c(C#Cc4cccc(CNCC(=O)O)c4)c3)nn2CCCN2CCOCC2)C1` [Example 189, N-{[3-({2-Chloro-5-[5-(methylsulfonyl)-1-(3-morpholin-4-ylpropyl)-4,5,6,7-tetrahydro-1H-pyrazolo[4,3-c]pyridin-3-yl]phenyl}ethynyl)phenyl]methyl}glycine], for which the IC50 came to 140 nM. `CS(=O)(=O)N1CCc2c(c(-c3ccc(Cl)c(C#Cc4cccc(CNCCO)c4)c3)nn2CCCN2CCOCC2)C1` [Example 506, 2-({[3-({2-Chloro-5-[5-(methylsulfonyl)-1-(3-morpholin-4-ylpropyl)-4,5,6,7-tetrahydro-1H-pyrazolo[4,3-c]pyridin-3-yl]phenyl}ethynyl)phenyl]methyl}amino)ethanol]: the half-maximal inhibitory concentration (IC50) worked out at 520 nM. As to `CC(C)(C)OC(=O)N1CCC(C2CCN(C[C@H](O)Cn3nc(-c4ccc(Cl)c(C#CCc5ccccc5)c4)c4c3CCN(S(C)(=O)=O)C4)CC2)CC1` [Example 232, 1,1-Dimethylethyl 1′-[(2S)-3-{3-[4-chloro-3-(3-phenylprop-1-yn-1-yl)phenyl]-5-(methylsulfonyl)-4,5,6,7-tetrahydro-1H-pyrazolo[4,3-c]pyridin-1-yl}-2-hydroxypropyl]-4,4′-bipiperidine-1-carboxylate], the IC50 was found to be 1530 nM. As for `NC(=O)N1CCc2c(c(-c3ccc(Cl)c(C#Cc4cccc(CNCc5ccc(Cl)cc5)c4)c3)nn2CCCN2CCSCC2)C1` [Example 171, 3-(4-Chloro-3-{[3-({[(4-chlorophenyl)methyl]amino}methyl)phenyl]ethynyl}phenyl)-1-(3-thiomorpholin-4-ylpropyl)-1,4,6,7-tetrahydro-5H-pyrazolo[4,3-c]pyridine-5-carboxamide], the IC50 was found to be 200 nM. Regarding `C[C@H]1COCCN1CCCn1nc(-c2ccc(Cl)c(C#Cc3ccc(Cl)c(CNCc4ccccc4)c3)c2)c2c1CCN(S(C)(=O)=O)C2` [Example 286, 1-[2-Chloro-5-({2-chloro-5-[1-{3-[(3S)-3-methylmorpholin-4-yl]propyl}-5-(methylsulfonyl)-4,5,6,7-tetrahydro-1H-pyrazolo[4,3-c]pyridin-3-yl]phenyl}ethynyl)phenyl]-N-(phenylmethyl)methanamine], the IC50 worked out at 30 nM.

The experiment is the same for the next values; noted with them: CatS IC50, Table 2; average of results obtained.
With `CS(=O)(=O)N1CCc2c(c(-c3ccc(Cl)c(C#Cc4ccccc4)c3)nn2CCCN2CCOCC2)C1` [Example 39, 3-(4-Chloro-3-phenylethynyl-phenyl)-5-methanesulfonyl-1-(3-morpholin-4-yl-propyl)-4,5,6,7-tetrahydro-1H-pyrazolo[4,3-c]pyridine], the IC50 was found to be 610 nM.
